ChEMBL document CHEMBL2417478, “Farnesides A and B, sesquiterpenoid nucleoside ethers from a marine-derived Streptomyces sp., strain CNT-372 from Fiji” (J Nat Prod, 2013)
Activity calls are given as the source filed them. The calls are words filed in the database; no cut-off is given here.

Key:
Plasmodium falciparum = assay: Antimalarial activity against Plasmodium falciparum 3D7 MRA-102, MR4/ATCC infected in human erythrocytes assessed as inhibition of parasite proliferation after 72 hrs by SYBR green assay; format: functional, organism-based
Staphylococcus aureus = assay: Antibacterial activity against methicillin-resistant Staphylococcus aureus; format: functional, organism-based
HCT-116 = assay: Cytotoxicity against human HCT116 cells; format: functional, cell-based
Influenza A virus = assay: Antiviral activity against influenza A virus by plaque inhibition assay; format: functional, organism-based

CC(C)=CCC[C@@]1(C)O[C@@H]1CC/C(C)=C/COC[C@H]1O[C@@H](N2CCC(=O)NC2=O)[C@H](O)[C@@H]1O
IC50 (Plasmodium falciparum): 69.3 µM | Activity (Staphylococcus aureus): inactive | Activity (HCT-116): inactive | Activity (Influenza A virus): inactive

CC(C)=CCC/C(C)=C/COC[C@H]1O[C@@H](N2CCC(=O)NC2=O)[C@H](O)[C@@H]1O
Activity (Influenza A virus): Active

CC(C)=CCC[C@@](C)(O)[C@@H](O)CC/C(C)=C/COC[C@H]1O[C@@H](N2CCC(=O)NC2=O)[C@H](O)[C@@H]1O
Activity (Staphylococcus aureus): inactive | Activity (HCT-116): inactive | Activity (Influenza A virus): inactive
